Where two headings read alike, the source gives them in different places.
Columns and labels:
endogenous PTH 1-84 = conditions: healthy volunteers, no further suppression at higher doses, cited from earlier work
[1] = tested on: individuals with hypoparathyroidism; assay type: in vivo, human; conditions: for Active Vitamin D dose / Calcium supplement dose / Serum Calcium: mean of Compound 1 group
From the text: PaTHway is a phase 3, multicenter (North America and Europe), randomized, double-blind, placebo-controlled, parallel-group, 26-week trial with an open-label extension of 156 weeks that evaluated the efficacy, safety, and tolerability of once-daily Compound 1 as PTH replacement therapy in individuals with hypoparathyroidism. All participants who completed the 26- week blinded treatment period were allowed to enroll in the 156-week open-label extension period. (ClinicalTrials.gov identifier: NCT04701203; EudraCT No.: 2020-003380-26).
Once enrolled, participants were randomized 3:1 into 2 treatment groups: Compound 1 18 μg PTH(1-34)/day or placebo (excipient solution) mimicking 18 μg/day, both co-administered with conventional therapy (active vitamin D and elemental calcium).
Randomization was stratified by etiology of hypoparathyroidism (postsurgical vs. non-surgical). In addition to frequent laboratory visits to measure serum calcium levels, the blinded treatment period included 10 clinic visits over 26 weeks. Once-daily treatment with Compound 1 or placebo was delivered by a modified Ypsomed UnoPen Fix pen injector using 31-gauge, 5 mm pen needles to deliver doses of 6-30 μg/injection in a volume of ≤100 μL to either abdomen or anterior thigh, rotating injection sites.
All participants were initially prescribed Compound 1 18 μg PTH(1-34)/day or a corresponding volume of placebo and were individually and progressively titrated to an optimal dose (allowable range 6-60 μg/day) in increments of 3 μg/day. Titration of study drug and conventional therapy was performed according to a protocol-specified algorithm guided by serum calcium values (Example 2). The algorithm was intended to facilitate independence from conventional therapy by discontinuation of active vitamin D and calcium in response to reestablishment of physiological PTH signaling with Compound 1 treatment. In the setting of normocalcemia, the protocol directs incremental increases in study drug (Compound 1 or placebo) accompanied by stepwise reductions of active vitamin D by 33-50% of the starting dose, followed by reductions of calcium in at least 1500 mg/day increments once vitamin D has been discontinued.
Participants were permitted to take elemental calcium <600 mg/day as a nutritional supplement if required to meet the generally recommended dietary intakes of calcium.
Treatment with Compound 1 was carried out in accordance with Example 1.

For “Compound 5: polypeptide having the sequence AVAEIQLMHQRAKWIQDARR RAFLHKLIAEIHTAEI, SEQ ID NO:122 (AVAEIQLMHQRAKWIQDARRRAFLHKLIAEIHTAEI; Artificial random coil) [reference compound]”, the “dose able to suppress endogenous PTH 1-84” value (endogenous PTH 1-84; daily dosing) is listed as 60 µg.
For palopegteriparatide [Compound 1], the “dose that fully suppresses endogenous PTH 1-84” value (endogenous PTH 1-84) is listed as 16 µg/day, the “time to complete discontinuation of active vitamin D” value ([1]; Compound 1 group) is listed as no more than 8 weeks and the “SAEs considered related to treatment” value ([1]; in vivo) is listed as “one”. For the same substance, the “participants reporting SAEs” value ([1]; in vivo) was 8.2%, the “Active Vitamin D dose” value ([1]; week 0) was 0.992 µg and the Calcium supplement dose ([1]; week 0) was 1748.03 mg. For the same substance, the “Serum Calcium” value ([1]; week 0) was 8.8 mg/dL, the “Active Vitamin D dose” value ([1]; week 2) was 0.098 µg and the Calcium supplement dose ([1]; week 2) was 1524.1 mg. For the same substance, the “Serum Calcium” value ([1]; week 2) was 9.8 mg/dL, the “Active Vitamin D dose” value ([1]; week 4) was 0.008 µg and the Calcium supplement dose ([1]; week 4) was 548.77 mg. The “Serum Calcium” value ([1]; week 4) was 9.6 mg/dL, the “Active Vitamin D dose” value ([1]; week 6) was 0.004 µg and the Calcium supplement dose ([1]; week 6) was 229.1 mg. For the same substance, the “Serum Calcium” value ([1]; week 6) was 9.7 mg/dL, the “Active Vitamin D dose” value ([1]; week 8) was 0 µg and the Calcium supplement dose ([1]; week 8) was 105.74 mg. For the same substance, the “Serum Calcium” value ([1]; week 8) was 9.5 mg/dL, the “Active Vitamin D dose” value ([1]; week 10) was 0 µg and the Calcium supplement dose ([1]; week 10) was 114.17 mg. The “Serum Calcium” value ([1]; week 10) was 9.5 mg/dL, the “Active Vitamin D dose” value ([1]; week 12) was 0 µg and the Calcium supplement dose ([1]; week 12) was 102.46 mg. The “Serum Calcium” value ([1]; week 12) was 9.5 mg/dL, the “Active Vitamin D dose” value ([1]; week 16) was 0 µg and the Calcium supplement dose ([1]; week 16) was 182.38 mg. For the same substance, the “Serum Calcium” value ([1]; week 16) was 9.3 mg/dL, the “Active Vitamin D dose” value ([1]; week 20) was 0 µg and the Calcium supplement dose ([1]; week 20) was 300.83 mg. For the same substance, the “Serum Calcium” value ([1]; week 20) was 9.3 mg/dL, the “Active Vitamin D dose” value ([1]; week 26) was 0 µg and the Calcium supplement dose ([1]; week 26) was 274.17 mg. For the same substance, the “Serum Calcium” value ([1]; week 26) was 8.9 mg/dL and the “mean serum calcium (sCa) levels” value ([1]; when adequately titrated, all study visits) was “in the normal range”.

Reference: patent US20260115298A1, “PTH Treatment Regimen Comprising Two PTH Compounds” (priority 2022, published 2026)
